Assay [1] addresses T1, LXRα ligand binding domain (Homo sapiens, UniProt Q13133).
T1 construct: expressed in transfected cells; host or cells: HEK-293
T1 sequence (Q13133 164-447): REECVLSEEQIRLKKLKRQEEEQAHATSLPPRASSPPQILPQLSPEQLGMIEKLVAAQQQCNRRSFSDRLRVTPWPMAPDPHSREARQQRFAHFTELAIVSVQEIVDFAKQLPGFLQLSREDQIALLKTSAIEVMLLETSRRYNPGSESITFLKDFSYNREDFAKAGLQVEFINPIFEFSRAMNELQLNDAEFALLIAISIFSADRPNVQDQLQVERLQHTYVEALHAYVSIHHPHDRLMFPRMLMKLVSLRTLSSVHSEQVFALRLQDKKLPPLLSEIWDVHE
In words: dual luciferase reporter gene assay, LXRα-LBD/GAL4-DBD in HEK-293 cells. Format: cell-based. The procedure: (§1) The ligand binding domain (LBD) of LXRα (amino acids 164 to 447) or LXRβ (amino acids 154 to 461) was cloned into pBIND [Renilla/Amp] vector (Promega). Selection and amplification were performed in E. coli cells. Purification of the plasmids was performed with a plasmid purification kit (Qiagen). For transfection HEK-293 cells were plated in 96-well plates (TPP) at a density of 3.5×10^4 cells/well for 24 h. To investigate the ligand binding on LXRα ligand binding domain, 0.04 ng of renilla luciferase coding plasmide pGL4.75 (Promega), 0.04 ng of LXRα-LBD/GAL4-DBD plasmide and 80 ng of firefly luciferase coding plasmide pGL4.31 (Promega) were used in a total volume of 200 µL for each well. For LXRβ binding assay 40 ng of LXRβ-LBD/GAL4-DBD plasmide were applied in each transfection mix. Transfection was carried out for 4 h with Lipofectamine 2000 Transfection Reagent (Invitrogen) in Opti-MEM medium (Invitrogen). Ligand treatment was performed at different concentrations for 24 h. For lysis and detection dual-luciferase reporter gene assay system (Promega) and POLARstar Omega (BMG LABTECH) were used.

Assay [2] addresses T2, LXRβ ligand binding domain (Homo sapiens, UniProt P55055).
T2 construct: expressed in transfected cells; host or cells: HEK-293
T2 sequence (P55055 154-460 limits assumed): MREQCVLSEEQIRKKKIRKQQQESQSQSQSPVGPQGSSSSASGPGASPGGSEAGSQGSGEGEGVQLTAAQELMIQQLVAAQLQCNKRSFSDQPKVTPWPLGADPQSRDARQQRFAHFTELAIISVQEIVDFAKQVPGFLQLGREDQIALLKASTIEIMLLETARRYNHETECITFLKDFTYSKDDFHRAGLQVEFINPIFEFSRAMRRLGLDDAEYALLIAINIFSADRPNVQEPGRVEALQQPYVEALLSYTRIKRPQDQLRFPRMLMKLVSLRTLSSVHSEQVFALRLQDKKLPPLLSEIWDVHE
Put plainly: dual luciferase reporter gene assay, LXRβ-LBD/GAL4-DBD in HEK-293 cells. Format: cell-based. How it is done:
as §1
(In general: Reporter assays use an easily measured gene product as a stand-in for the process of interest.)

The subject of assay [3] is THP-1 macrophages. In words: gene expression of LXRα target genes (qPCR) in THP-1 macrophages. Format: cell-based, human. As to conditions: for expression of LXRα target genes (LXRα, SREBF1, ABCA1, APOE): 10 µM, 24 h. How it is done:
(§2) We used the human THP1 cell line, which is widely applied as a macrophage and foam cell model with similar properties as primary cells. […] For generating macrophages differentiation was induced by 10^−8 M Phorbol 12-myristate 13-acetate (PMA) (Sigma-Aldrich) for 48 h. Ligand treatment of macrophages was performed for further 24 h. To induce foam cell formation macrophages were treated for additional 48 h with 100 µg/mL modified human oxidized low density lipoprotein (oxLDL) obtained from Source BioScience (RP-048). Ligand treatment was performed simultaneously with foam cell formation. Cholesterol loading and treatment was controlled with Oil Red O staining (Alfa Aeser). To investigate ligand induced effects on cell proliferation of THP-1 macrophages CellTiter-Glo Luminescent Cell Viability Assay (Promega) was utilized.
(§3) Total RNA isolation and purification was performed by using the RNeasy Mini Kit (QIAGEN) and RNase-Free DNase Set (QIAGEN). cDNA was generated by reverse transcription using the High Capacity cDNA Reverse Transcription Kit (Life Technologies). Gene expression was quantified using the SYBR Green PCR Master Mix (Life Technologies) and ABI 7900HT Fast Real Time PCR System (Life Technologies). In each reaction 0.8 ng/µL cDNA and 0.2 µM primers were used. Gene expression was calculated with the ΔΔCt-method. ß-Actin was used for normalisation.
(In general: Real-time PCR tracks product formation cycle by cycle.)

Assay [4] concerns THP1-derived foam cells. Put plainly: gene expression of LXRα target genes (qPCR) in oxLDL-loaded foam cells. As to conditions: 10 µM. The format is cell-based, human. The procedure:
as §2, §3

Assay [5] deals with THP1-derived foam cells. In words: Western blot of LXRα and APOE in foam cells. The following applies: Western blot densitometry. The format is cell-based, human. How it is done:
as §2
Whole cell extracts were harvested from three biological replicates and denaturized for SDS-PAGE (NuPAGE Novex 4–12% Bis-Tris Gels). Proteins were blotted on nitrocellulose Hybond ECL membrane and incubated with strictly validated published antibodies against LXRα (Abcam, ab 41902), APOE (Abcam ab1906), and as housekeeping protein control β-Actin (Santa Cruz Biotechnology, sc-47778, C4). […] This tool measures quantitatively the optical density and provides more accurate data than simple eye-observations. […]
(In general: Immunoblotting shows a protein as a band on a membrane.)

Assay [6] deals with THP1-derived foam cells. Put plainly: cholesterol and triglyceride content in foam cells. The format is cell-based, human. As to conditions: 10 µM, 48 h, vs. DMSO. The procedure:
as §2
(§4) THP-1 monocytes were plated out into 24-well plates (Nunc) at a density of 2×10^5 cells/well. After differentiation and treatment cells were lysed with 100 µL lysis buffer (PBS, 0.25 M NaCl, 1% Triton X-100). Total and free cholesterol were determined using the colorimetric enzymatic Amplex Red Cholesterol Assay Kit (Invitrogen). Triglycerides were quantified by Triglyceride Assay Kit (BioVision). For normalisation protein content was determined with Pierce 660 nm Protein Assay Reagent (Thermo Scientific).

For assay [7], the system named is THP-1 macrophages. In words: triglyceride content in macrophages. Format: cell-based, human. As to conditions: 10 µM, 48 h, vs. DMSO. The procedure:
as §2, §4

The mark [8] stands for this setting: +DMSO, transcriptional activation vs. T09.

Like-named read-outs stand apart in the source and are kept apart here.

As a reminder, the EC50 is the concentration needed to bring the measured effect to its halfway point.

In the case of `C(=C\c1ccc(OCC2CO2)cc1)/c1ccccc1` (stereo not drawn) [STX4, 2-[[4-[(E)-styryl]phenoxy]methyl]oxirane], the Efficacy in assay [1] (+200 nM T0901317 (additive)) stood at 47%; in assay [1] (setting [8]) it was 6%. The EC50 in assay [1] (+200 nM T0901317 (additive), read-out: EC50) stood at 28 nM; in assay [1] (+DMSO, LXRα reporter gene, HEK-293, 24 h, read-out: EC50), 35 nM. Also, in assay [2], the “Transcriptional activation of LXRβ” value is given as “does not activate”. Besides, the “expression of LXRα target genes (LXRα, SREBF1, ABCA1, APOE)” value with THP-1 macrophages [3] is listed as “not”; in the assay on THP1-derived foam cells [4], “potent target gene expression similar to T09”. For the same compound, the “ABCA1 expression with STX4 in the presence of T09” value in the assay on THP-1 macrophages [3] (presence of 1 µM T09) was “additive effects”. Also, the “protein expression levels of LXRα target genes (LXRα, APOE)” value in the assay with THP1-derived foam cells [5] is recorded as “increased protein expression levels”. Moreover, the “total and esterified cholesterol content” value in the assay with THP1-derived foam cells [6] is given as “significant reduction”. Further, in the assay with THP1-derived foam cells [6], the triglyceride levels result was “not increased”. Further, in the assay with THP-1 macrophages [7], the triglyceride level entry was “stayed rather unchanged”.

`CC(C)CC[C@@H](O)[C@@H](C)[C@H]1CC[C@H]2[C@@H]3CC=C4C[C@@H](O)CC[C@]4(C)[C@H]3CC[C@]12C` [22-R-Hydroxycholesterol, reference compound] had an EC50 in assay [1] of 13300 nM. The Efficacy in assay [1] (setting [8]) is listed as 4%.

For `O=S(=O)(c1ccccc1)N(CC(F)(F)F)c1ccc(C(O)(C(F)(F)F)C(F)(F)F)cc1` [T0901317, reference compound], in the assay on THP-1 macrophages [3], the “expression of LXRα target genes (LXRα, SREBF1, ABCA1, APOE)” value is listed as “increased expression”. Moreover, in the assay with THP1-derived foam cells [6], the “total and esterified cholesterol content” value was “significant reduction”; the triglyceride levels result is on record as “increased triglyceride levels”. For the same compound, the triglyceride level entry in the assay with THP-1 macrophages [7] is on record as “stayed rather unchanged”.

Values taken from article PMC3581588, “Foam Cell Specific LXRα Ligand” (PLoS ONE, 2013).
